Our source for the CAR, Activity and LD50 values is ChEMBL document CHEMBL1121515 (J Med Chem, 1980).

What is called LD50 is the dose expected to kill half of the subjects tested. A low value points to a more toxic substance.

In series [1] the test system is Rattus norvegicus. In words: Conditioned avoidance response (CAR) was measured in rats at 10 mg/kg; I = inactive. The class given is functional, organism-based. On the set-up: dose 10 mg/kg.
For series [2], the system named is Rattus norvegicus. Description: Conditioned avoidance response (CAR) was measured in rats at 20 mg/kg; A = active. On the set-up: dose 20 mg/kg. The class given is functional, organism-based.
The species named for series [3] is Mus musculus. In words: Relative CNS activity of compound was measured in mice; (-) </= […]. The class given is functional, Central nervous system.
Series [4] can be described thus: Lethal dose was measured in mice 0.5 hr post intraperitoneal administration. It counts as toxicity, organism-based. The conditions noted are these: mouse, in vivo, ip.
The species entered for series [5] is Mus musculus. Description: Relative CNS activity of compound was measured in mice (++ =for activity in 4-5 assays). The class given is functional, organism-based. The conditions noted are these: Central nervous system.
The species named for series [6] is Rattus norvegicus. Description: Conditioned avoidance response (CAR) was measured in rats; Inactive. It counts as functional, organism-based.
Series [7] deals with Rattus norvegicus. Description: Conditioned avoidance response (CAR) was measured in rats at 10 mg/kg; Inactive. The class given is functional, organism-based. Also on record: dose 10 mg/kg.
In series [8] the test system is Rattus norvegicus. Description: Conditioned avoidance response (CAR) was measured in rats at 40 mg/kg; Active. The class given is functional, organism-based. On the set-up: dose 40 mg/kg.
Series [9] deals with Rattus norvegicus. In words: Conditioned avoidance response (CAR) was measured in rats at 20 mg/kg doses; I = inactive. The class given is functional, organism-based. Also on record: dose 20 mg/kg.
Series [10] deals with Rattus norvegicus. In words: Conditioned avoidance response (CAR) was measured in rats at 5 mg/kg doses; I = inactive. It counts as functional, organism-based. On the set-up: dose 5 mg/kg.
The species named for series [11] is Mus musculus. Description: Relative CNS activity of compound was measured in mice (+++ =for activity in > 6 assays). The class given is functional, organism-based. The conditions noted are these: Central nervous system.
The subject of series [12] is Rattus norvegicus. Description: Conditioned avoidance response (CAR) was measured in rats at 40 mg/kg;A = active. The class given is functional, organism-based. Also on record: dose 40 mg/kg.
In series [13] the test system is Rattus norvegicus. Description: Conditioned avoidance response (CAR) was measured in rats at 10 mg/kg;I = inactive. It counts as functional, organism-based. Also on record: dose 10 mg/kg.
The species entered for series [14] is Mus musculus. Description: Relative CNS activity of compound was measured in mice (for activity in 2-3 assays). The conditions noted are these: Central nervous system. The class given is functional, organism-based.
The test system of series [15] is Rattus norvegicus. In words: Conditioned avoidance response (CAR) was measured in rats at 40 mg/kg; A = active. The class given is functional, organism-based. Also on record: dose 40 mg/kg.
For series [16], the species on record is Rattus norvegicus. In words: Conditioned avoidance response (CAR) was measured in rats; I = inactive. The class given is functional, organism-based.

Calls of active or inactive are those of the source. The rule behind the calls is not given here.

As to `Cl.c1ccc(-c2cccc3c2CNCC3)cc1`, the CAR entry with Rattus norvegicus [1] is “inactive”. In addition, in the series on Rattus norvegicus [2], the CAR result is “Active”. Moreover, the Activity entry in the series listed under Mus musculus [3] is reported as “<=1”. The same compound showed an LD50 at 0.5 h in series [4] of 82 mg/kg.

For `COc1ccccc1-c1cccc2c1CNCC2.Cl`, the result in the series filed under Mus musculus [5] was Active. In addition, the LD50 at 0.5 h in series [4] was 81 mg/kg.

Take `COc1ccccc1-c1cccc2c1CN(Cc1ccccc1)CC2.Cl`: in the series filed under Rattus norvegicus [6], the CAR result is “inactive”. Also, the Activity entry in the series listed under Mus musculus [3] is on record as “<=1”. For the same compound, in series [4], the LD50 at 0.5 h was over 160 mg/kg.

`COc1cccc(-c2cccc3c2CNCC3)c1.Cl`: the result in the series filed under Mus musculus [5] was Active. The CAR entry in the series on Rattus norvegicus [7] is “inactive”. Also, in the series on Rattus norvegicus [8], the CAR entry is “Active”. This compound also registered an LD50 at 0.5 h in [4] of under 160 mg/kg.

As to `CC1Cc2cccc(-c3ccccc3)c2CN1.Cl` (configuration not stated), the CAR entry in the series on Rattus norvegicus [9] and in the series with Rattus norvegicus [10] was “inactive” each time. For the same compound, in the series filed under Mus musculus [3], the Activity result is recorded as “<=1”. The compound further gave an LD50 at 0.5 h in series [4] of 146 mg/kg.

On to `CN1CCc2cccc(-c3ccccc3)c2C1.O=C(O)/C=C/C(=O)O`, for which the Activity entry in the series listed under Mus musculus [11] was “Weak activity”. Also, in the series on Rattus norvegicus [12], the CAR entry is “Active”. Besides, the CAR result in the series on Rattus norvegicus [13] was “inactive”. The LD50 at 0.5 h in series [4] was under 320 mg/kg.

For the compound `COc1cccc(-c2cccc3c2CN(Cc2ccccc2)CC3)c1.Cl`, the CAR entry in the series listed under Rattus norvegicus [6] was “inactive”. The Activity result in the series filed under Mus musculus [3] is given as “<=1”. In series [4], this compound returned an LD50 at 0.5 h of over 320 mg/kg.

Consider `COc1ccccc1-c1cccc2c1CN(C)CC2.Cl`, for which, in the series filed under Mus musculus [3], the Activity entry is reported as “<=1”. The CAR entry with Rattus norvegicus [7] was “inactive”. Also, the CAR result in the series with Rattus norvegicus [8] was “Active”. The compound further registered an LD50 at 0.5 h in [4] of 81 mg/kg.

As for `CC1Cc2cccc(-c3ccccc3)c2CN1Cc1ccccc1.Cl` (configuration not stated), the CAR result in the series on Rattus norvegicus [13] was “inactive”. For the same compound, in the series filed under Mus musculus [14], the Activity entry is “Weak activity”. For the same compound, in the series with Rattus norvegicus [15], the CAR entry was “Active”. For the same compound, the LD50 at 0.5 h in series [4] was 227 mg/kg.

For the compound `COc1cccc(-c2cccc3c2CN(C)CC3)c1.Cl`, the Activity entry in the series listed under Mus musculus [14] is “Weak activity”. Further, the CAR result in the series with Rattus norvegicus [7] was “inactive”. In the series with Rattus norvegicus [8], the CAR result is “Active”. The compound also registered an LD50 at 0.5 h in series [4] of 156 mg/kg.

In the case of `Br.CC1Cc2cccc(-c3ccccc3)c2CN1C` (configuration not stated), in the series filed under Rattus norvegicus [16], the CAR entry is “inactive”. For the same compound, the outcome in the series listed under Mus musculus [5] was Active. The LD50 at 0.5 h in series [4] is under 320 mg/kg.

As to `Cl.c1ccc(CN2CCc3cccc(-c4ccccc4)c3C2)cc1`, the CAR entry in the series filed under Rattus norvegicus [16] was “inactive”. Also, the Activity entry in the series filed under Mus musculus [3] was “<=1”. This compound also displayed an LD50 at 0.5 h in series [4] of 158 mg/kg.
